From publication PMC10515486, “Peptide Bispecifics Inhibiting HIV-1 Infection by an Orthogonal Chemical and Supramolecular Strategy” (Bioconjugate Chemistry, 2023)
Non-standard residues stand in square brackets, D forms with d. Residues, ends and D or L forms follow the SMILES beside them. No end group written: not given here. *: point of attachment. X1 = O=C(CCCC[C@@H]1SC[C@@H]2NC(=O)N[C@@H]21)NCCOCCOCCOCCOCCOCCOCCOCCOCCOCCOCCOCCNC(=O)CCN1C(=O)CC(*)C1=O

How the values were obtained:
X4-tropic HIV-1 = assay: Replication kinetics in human PBMCs, X4-tropic HIV-1; type: cell-based; settings: activated PBMCs from three human donors; 1 μM compound, AMD3100 1 μM, MVC 50 nM; supernatants titrated on TZM-bl cells
Protocol: (§1) (A) TZM-bl cells were pretreated with the indicated amounts of the single or multivalent compound and infected with X4- or R5-tropic HIV-1. Three days post-infection, a β-galactosidase assay was performed. […] (B) Human PBMCs were isolated, stimulated, and pretreated with 1 μM of the indicated single- or multivalent compound, Maraviroc (MVC/50 nM) or AMD3100 (1 μM). The cells were infected with X4- or R5-tropic HIV-1. Infectious virus yield was determined by infection of TZM-bl reporter cells with PBMC culture supernatants obtained at the indicated day post-infection (dpi). […]

R5-tropic HIV-1 NL4-3 = tested on: R5-tropic HIV-1 NL4-3
Description: (§2) TZM-bl reporter cells were pretreated with increasing concentrations of the mono- and multivalent compounds and subsequently infected with the well-characterized X4-tropic HIV-1 NL4-3 molecular clone or an R5-tropic derivative thereof that differs in the V3 region of the viral envelope glycoprotein from the parental virus (Figure 5A).[39]
as §1
(§3) in supplemented RPMI-1640 and incubated with Human T-Activator CD3/CD28 […]
(§4) Virus stocks were generated by transient transfection of HEK293T cells using the calcium-phosphate precipitation method. One day before transfection, 0.8 x 10^6 HEK293T cells were seeded in 6 -well plates (Greiner Bio -one, Frickenhausen, Germany). At a confluence of 60-80% cells were used for transfection. For the […]

X4-tropic HIV-1 NL4-3 = settings: read-out: IC50 X4; TZM-bl cells pretreated, infected with X4-tropic HIV-1 NL4-3; β-galactosidase 3 days p.i.; molarity of biotin-conjugated peptide or of SAv construct (per construct); nonlinear regression
Description: as §2, §1, §3, §4

wild-type HIV-1 NL4-3 = settings: Figure 2B
Description: (B) Inhibition of wild-type HIV-1 NL4-3 by single-cysteine VIRIP derivatives.

R5-tropic HIV-1 = assay: Replication kinetics in human PBMCs, R5-tropic HIV-1; type: cell-based; settings: activated PBMCs from three human donors; 1 μM compound, AMD3100 1 μM, MVC 50 nM; supernatants titrated on TZM-bl cells
Protocol: Figure 5 Antiviral activity of single- and multivalent VIR-102C9/EPI-X4 JM#173-C conjugates. Concentrations indicate the molarity of the tested biotin-conjugated peptides or of the SAv conjugates with four copies of mono- or bispecific peptides respectively. (A) TZM-bl cells were pretreated with the indicated amounts of the single or multivalent compound and infected with X4- or R5-tropic HIV-1. Three days post-infection, a β-galactosidase assay was performed. IC50 values are given in the SI (Table S2). (B) Human PBMCs were isolated, stimulated, and pretreated with 1 μM of the indicated single- or multivalent compound, Maraviroc (MVC/50 nM) or AMD3100 (1 μM). […] Infectious virus yield was determined by infection of TZM-bl reporter cells with PBMC culture supernatants obtained at the indicated day post-infection (dpi). […] They are assigned to (14) only because they sit in the plots with the purple curve, matched to the colour legend. / 14, IC50 (X4): small print, 0.026 could be 0.028 or 0.025 / 14, IC50 (R5): small print, 0.039 could be 0.038 or 0.089 / Substance label in the legend reads 'SAv-VIR-1029C-', but panel B prints 'SAv-VIR-102C9'. […]
Cell viability was determined by the Cell Titer-Glo 2.0 Cell Viability Assay according to the manufacturer’s instructions. […]
After 48 h, cell viability was assessed by measuring ATP levels in cells lysates with the commercially available Cell Titer-Glo kit. […]

HIV-1 NL4-3 = assay: TZM-bl infection with HIV-1 NL4-3 preincubated with carrier compounds; type: cell-based; settings: virus preincubated with increasing amounts of carrier; β-galactosidase 3 days p.i.; three biological replicates
Protocol: To determine the infectivity of virions produced in infected human |PBMCs, TZM-bl cells were seeded in 96 -well plates at a density of 10,000 cells/well and infected after overnight incubation with the supernatants collected from the PBMC cultures. Three days p.i., viral infectivity was determined using a galactosidase screen kit from Tropix as recommended by the manufacturer. β-Galactosidase activities were quantified as relative light units (RLU) per second with an Orion Microplate luminometer (Berthold) . […]
infected with HIV-1 NL4-3 that was preincubated with increasing amounts of the carrier compounds Avidin, Neutravidin or Streptavidin. Three days post infection , a β-galactosidase assay was performed.
Each dot represents three biological replicates ± SEM.
(1 picture or pasted object on this page, not shown here)

`c1cc(CN2CCCNCCNCCCNCC2)ccc1CN1CCCNCCNCCCNCC1` [AMD3100] was tested, and the “replication of X4-tropic HIV-1 in PBMCs (infectious virus yield)” value (X4-tropic HIV-1) was “blocked”.
For `CC[C@H](C)[C@H](NC(=O)[C@H](CO)NC(=O)[C@H](CCSC)NC(=O)[C@@H]1CCCN1C(=O)[C@@H](NC(=O)[C@H](C)NC(=O)[C@H](CCC(=O)O)NC(=O)[C@@H](N)CC(C)C)[C@@H](C)CC)C(=O)N[C@@H](CSC1CC(=O)N(CCC(=O)NCCOCCOCCOCCOCCOCCOCCOCCOCCOCCOCCOCCNC(=O)CCCC[C@@H]2SC[C@@H]3NC(=O)N[C@@H]32)C1=O)C(=O)N1CCC[C@H]1C(=O)N[C@@H](CCC(=O)O)C(=O)N[C@H](C(=O)N[C@@H](Cc1ccccc1)C(=O)N[C@@H](Cc1ccccc1)C(=O)N[C@@H](CC(N)=O)C(=O)N[C@@H](CCCCN)C(=O)N1CCC[C@H]1C(=O)N[C@@H](Cc1ccccc1)C(=O)N[C@H](C(=O)N[C@@H](Cc1ccccc1)C(=O)O)C(C)C)C(C)C` (stereo partly shown) [compound 5] (H-LEAIPMSIC(X1)PEVFFNKPFVF-OH; N-terminus and C-terminus assumed), the IC50 (R5-tropic HIV-1 NL4-3; read-out: IC50 R5, TZM-bl cells pretreated, infected with R5-tropic HIV-1 NL4-3 derivative, β-galactosidase 3 days p.i., molarity of biotin-conjugated peptide or of SAv construct (per construct)) was 1.2 µM and the IC50 (X4-tropic HIV-1 NL4-3) was 1.13 µM.
For `CC[C@@H](C)[C@@H](N)C(=O)N[C@@H](CC(C)C)C(=O)N[C@@H](CCCNC(=N)N)C(=O)N[C@@H](Cc1c[nH]c2ccccc12)C(=O)N[C@@H](CO)C(=O)N[C@@H](CCCNC(=N)N)C(=O)N[C@@H](CCCCN)C(=O)N[C@@H](CSC1CC(=O)N(CCC(=O)NCCOCCOCCOCCOCCOCCOCCOCCOCCOCCOCCOCCNC(=O)CCCC[C@@H]2SC[C@@H]3NC(=O)N[C@@H]32)C1=O)C(N)=O` (stereo partly shown) [compound 6] (H-[dI]LRWSRKC(X1)-NH2; N-terminus and C-terminus assumed), the “activity against the R5-tropic derivative (in words)” value (R5-tropic HIV-1 NL4-3; TZM-bl cells) was “inactive”.
Work on LEAIPMSICPEVFFNKPFVF [VIR-102C9] yielded an IC50 (wild-type HIV-1 NL4-3) of 0.2 µM.
For Maraviroc, the “replication of R5-tropic HIV-1 in PBMCs (infectious virus yield)” value (R5-tropic HIV-1) was “prevented”.
“Streptavidin: tetrameric biotin-binding protein, carrier” was tested, and the “effect on HIV-1 infection efficiency” value (HIV-1 NL4-3) was “do not alter”.
